Consider three compounds from US7750148B2, “Intermediate compound for the production of β-lactamase-resistant cephalosporin ester compounds and salts thereof” (Zhejiang Yongning Pharmaceutical Factory, priority 2003, dated 2010).

Molecules are shown by their SMILES. Read-outs that look alike come from different tables or passages of the source. Where only a bound is given, the exact number is not on record here.

Assay [1] has as its system Staphylococcus aureus 26003. The experiment in a line: In vitro antibacterial activity (MIC, agar double dilution). Particulars: Staphylococcus aureus, 26003, 24 h, read-out: MIC of the drug to bacteria. The assay is classed as cell-based. An excerpt: (§1) tested samples YR-1, YR-2 were the ones prepared in example 1 and example 5 respectively, control samples were cefetamet sodium (CTM), cefuroxime sodium (CRX), cefetamet sodium+sulbactam sodium (CTM+SBT) (molar ratio 1:1), cefuroxime+sulbactam sodium (CRX+SBT) (molar ratio 1:1). All control samples (have been sold on the market) were supplied by Zhejiang Yongning pharmaceutical factory.
(§2) Staphylococcus aureus 26003, Diplococcus lanceolatus 31002, E. coli 44102, Shigella sonnet 51081, Shigella bogdii 51313, Shigella flexneri 51573, Proteus mirabilis 49005, Bacillus proteus 49085, Proteus morganii 49086, Pseudomonas aeruginosa 10124, Bacillus pneumoniae 46101, Salmonella enteritidis 50041, Salmonella typhi 50097, Citrobacter 48017, Candida ciferii 41002 were supplied by Shanghai Hygienic and Antiepidemic Station.
(§3) Mueller-Hinton Agar (M.H) culture medium, batch number 20040528 (Shanghai Reagent Supply Research Center, China Diarrhea Disease Control).
(§4) Adopted agar double dilution, inoculated using multipoint inoculator, inoculated 10^5CFU/ML each point, cultured for 24 hours at 37° C., observed and recorded the results, set the least concentration of the antibacterial drug that can inhibit bacteria growth as the minimum inhibitory concentration (MIC).

Assay [2] deals with Pseudomonas aeruginosa 10124. The description is as above. The following applies: read-out: MIC of the drug to bacteria. The format is cell-based.
Excerpt: as §1, §2, §3, §4

Assay [3] relates to Candida ciferii 41002. The assay is described as above. The following applies: read-out: MIC of the drug to bacteria. The assay is classed as cell-based.
Excerpt: as §1, §2, §3, §4

In assay [4] the test system is Shigella bogdii 51313. The assay is described as above. The assay is classed as cell-based. Particulars: Shigella, 51313, 24 h, read-out: MIC of the drug to bacteria.
Excerpt: as §1, §2, §3, §4

Assay [5] relates to Salmonella typhi 50097. The description is as above. The assay is classed as cell-based. The following applies: Salmonella enterica, 10^5CFU/ML each point, 24 hours at 37° C., read-out: MIC of the drug to bacteria.
Excerpt: as §1, §2, §3, §4

The subject of assay [6] is Bacillus proteus 49085. The description is as above. The format is cell-based. Particulars: read-out: MIC of the drug to bacteria.
Excerpt: as §1, §2, §3, §4

In assay [7] the test system is Bacillus pneumoniae 46101. The assay is described as above. The format is cell-based. Particulars: read-out: MIC of the drug to bacteria.
Excerpt: as §1, §2, §3, §4

The subject of assay [8] is E. coli 44102. Described as above. The format is cell-based. Particulars: read-out: MIC of the drug to bacteria.
Excerpt: as §1, §2, §3, §4

Assay [9] has as its system Diplococcus lanceolatus 31002. The assay is described as above. The following applies: read-out: MIC of the drug to bacteria. The assay is classed as cell-based.
Excerpt: as §1, §2, §3, §4

The subject of assay [10] is Proteus mirabilis 49005. The description is as above. The assay is classed as cell-based. The following applies: Proteus mirabilis, 49005, 24 h, read-out: MIC of the drug to bacteria.
Excerpt: as §1, §2, §3, §4

The test system of assay [11] is Shigella flexneri 51573. The assay is described as above. The assay is classed as cell-based. The following applies: Shigella flexneri, 51573, 24 h, read-out: MIC of the drug to bacteria.
Excerpt: as §1, §2, §3, §4

Assay [12] has as its system Citrobacter 48017. The assay is described as above. The format is cell-based. Particulars: Citrobacter, 48017, 24 h, read-out: MIC of the drug to bacteria.
Excerpt: as §1, §2, §3, §4

Assay [13] has as its system Shigella sonnet 51081. The assay is described as above. The following applies: Shigella, 51081, 24 h, read-out: MIC of the drug to bacteria. The assay is classed as cell-based.
Excerpt: as §1, §2, §3, §4

The subject of assay [14] is Salmonella enteritidis 50041. Described as above. Particulars: Salmonella enterica, read-out: MIC of the drug to bacteria. The format is cell-based.
Excerpt: as §1, §2, §3, §4

The subject of assay [15] is Bacillus proteus 49085, Proteus morganii 49086. The experiment in a line: Ex vivo antibacterial activity experiment after mouse is administered, conclusions (strains not separated). Particulars: mice, intravenous injection 500 mg/kg. The format is in vivo. An excerpt: the sources of tested samples (YR-1, YR-2) and control samples (CTM, CRX, CTM+SBT 1:1 and CRX+SBT 1:1) are the same as above. Bacillus proteus 49085, Proteus morganii 49086, inoculated 10^5CFU/ML each dish. Mueller-Hinton Agar (M.H) culture medium, batch number 000707 (Shanghai Reagent Supply Research Center, China Diarrhea Disease Control). Strain: Kunming mice; source: Animal Facility of Shanghai Institute of Pharmaceutical Industry; certificate number: Hudonghezhengzi No. 107; animal numbers: 120; Sex: same number of male and female mice; Body weight: 18-21 g; fast time: 16 hours. Group 1: CTM, CRX, CTM+SBT 1:1, CRX+SBT 1:1 were given at a dosage of 500 mg/kg intravenously, collecting blood at 10 minutes, 30 minutes, 1 hour, 2 hours, 4 hours, 8 hours after administration. Group 2: […] Kunming mice were randomly divided into several groups according to body weight of empty stomach and sex. Collecting blood of three mice at different time point, anticoagulated with heparin, centrifugated and separated plasma, quantitative spotting, semi-quantitated antibacterial activity according to the size of bacterial inhibition ring.

In assay [16] the test system is Staphylococcus epidermidis 26069. Nature of the assay: In vitro antibacterial activity (MIC, agar double dilution). The format is cell-based. Particulars: read-out: MIC of the drug to bacteria.
Excerpt: as §1
(§5) Staphylococcus epidermidis 26069 and Bacillus aerogenes 45102 were supplied by Beijing Drug & Biology Product Appraisal Bureau.
as §3, §4

The subject of assay [17] is Bacillus aerogenes 45102. The assay is described as above. The assay is classed as cell-based. Particulars: Bacillus, 45102, 24 h, read-out: MIC of the drug to bacteria.
Excerpt: as §1, §5, §3, §4

Assay [18] deals with Proteus morganii 49086. Described as above. The assay is classed as cell-based.
Excerpt: as §1, §2, §3, §4

Assay [19] concerns Diplococcus lanceolatus 0031. The description is as above. Particulars: read-out: MIC of the drug to bacteria. The format is cell-based.
Excerpt: as §1
Diplococcus lanceolatus 0031 was supplied by Shanghai First People's Hospital.
as §3, §4

For assay [20], the system named is type II, III, IV, V β-lactamase. Particulars: at a concentration of 2 μg/ml; cited from earlier work.

As to `CO/N=C(\C(=O)N[C@@H]1C(=O)N2C(C(=O)O)=C(COC(N)=O)CS[C@H]12)c1ccco1` [CRX, cefuroxime sodium, reference compound], the MIC stood at 1.56 µg/mL in [1]; 100 µg/mL in assay [2] (Pseudomonas aeruginosa 10124, 10^5CFU/ML each point, 24 hours at 37° C.); 25 µg/mL in assay [3] (Candida ciferii 41002, 10^5CFU/ML each point, 24 hours at 37° C.); 1.56 µg/mL in assay [4]; 3.13 µg/mL in assay [5]; 0.78 µg/mL in assay [6] (Bacillus proteus 49085, 10^5CFU/ML each point, 24 hours at 37° C.). In addition, the MIC in assay [7] (Klebsiella pneumoniae, Bacillus pneumoniae 46101, 10^5CFU/ML each point, 24 hours at 37° C.) came out at 25 µg/mL; in [8] (Escherichia coli, E. coli 44102, 10^5CFU/ML each point, 24 hours at 37° C.), 6.25 µg/mL; in [9] (Diplococcus lanceolatus 31002, 10^5CFU/ML each point, 24 hours at 37° C.), 25 µg/mL; in assay [10] it was 1.56 µg/mL; in [11], 1.56 µg/mL; in assay [12] it was 1.56 µg/mL. The MIC in [13] stood at 0.78 µg/mL; in [14] (Salmonella enteritidis 50041, 10^5CFU/ML each point, 24 hours at 37° C.), 6.25 µg/mL; in [16] (Staphylococcus epidermidis 26069, 10^5CFU/ML each point, 24 hours at 37° C.), 0.39 µg/mL; in assay [17], 3.13 µg/mL; in assay [18] (Morganella morganii, Proteus morganii 49086, 10^5CFU/ML each point, 24 hours at 37° C., read-out: MIC of the drug to bacteria), 100 µg/mL; in assay [19] (Diplococcus lanceolatus 0031, 10^5CFU/ML each point, 24 hours at 37° C.), 0.78 µg/mL. Besides, in assay [15], the “antibacterial activities in blood 8 hours after administration” value is given as “can not be detected”.
Turning to `CO/N=C(\C(=O)N[C@@H]1C(=O)N2C(C(=O)O)=C(C)CS[C@H]12)c1csc(N)n1` [CTM, cefetamet sodium, reference compound], the MIC was 100 µg/mL in [1]; 100 µg/mL in assay [2] (Pseudomonas aeruginosa, 10124, 24 h); 0.78 µg/mL in assay [3] (Candida, 41002, 24 h); 0.39 µg/mL in assay [4]; 0.78 µg/mL in assay [5]; 0.195 µg/mL in assay [6] (Bacillus, 49085, 24 h). Also, the minimum inhibitory concentration (MIC) in assay [7] (Klebsiella pneumoniae, 46101, 24 h) was 0.78 µg/mL; in assay [8] (Escherichia coli, 44102, 24 h) it was 0.78 µg/mL; in [9] (24 h), more than 100 µg/mL; in assay [10], 0.195 µg/mL; in [11], 0.78 µg/mL; in assay [12], 1.56 µg/mL. In addition, the minimal inhibitory concentration (MIC) in [13] is 0.39 µg/mL; in assay [14] (ENTERITIDIS, 24 h), 0.78 µg/mL; in [16] (Staphylococcus epidermidis, 26069, 24 h), 12.5 µg/mL; in [17], 0.195 µg/mL; in [18] (Morganella morganii, 49086, 24 h, read-out: MIC of the drug to bacteria), more than 100 µg/mL; in assay [18] (Morganella morganii, 49086, read-out: MIC (as restated in the conclusions)), more than 100000 µg/mL. Also, the MIC in assay [19] (24 h) came to 25 µg/mL. Also, the “antibacterial activities in blood 8 hours after administration” value in assay [15] is recorded as “can not be detected”.
Take `CC1(C)[C@H](C(=O)O)N2C(=O)C[C@H]2S1(=O)=O` [Sulbactam]: the “inhibition to β-lactamase” value in assay [20] is reported as “extremely strong inhibition”.

The MIC is the smallest concentration in the dilution series that meets the test's criterion for growth inhibition.
